Experiment [1] concerns Alkaline phosphatase. In words: Chemiluminescence half-life of dephosphorylated dioxetane. The class given is biochemical. The settings on record: for T1/2 (chemiluminescence half-life): 0.004 mM dioxetane, 30° C., 0.1M diethanolamine, 1 mM MgCl2, pH 10, alkaline phosphatase 1.05×10^-9 M, no enhancer; for T1/2 (chemiluminescence half-life), with Sapphire II enhancer: Sapphire II enhancer: 0.1M diethanolamine, 1 mM MgCl2, 10% polyvinylbenzyltributyl ammonium chloride at 1 mg/mL; for t1/2 (chemiluminescence half-life): in a buffer solution. The procedure:
Determination of the Chemiluminescence Half-Life of Dephosphorylated Dioxetane.
A 1 mL aliquot of each dioxetane (0.004 mM) was equilibrated to 30° C. in 0.1M diethanolamine, 1 mM MgCl2, pH 10. Alkaline phosphatase (at final concentration of 1.05×10^-9 M) was added to the test tube and the chemiluminescent signal kinetics was measured in a Turner TD-20E luminometer for 10 to 20 minutes. The half-life was calculated from the plot of log RLU versus time. For TFE and TFE-ADP-Star, the chemiluminescent half-life was also determined in the presence of Sapphire II enhancer (in 0.1M diethanolamine, 1 mM MgCl2, 10% polyvinylbenzyltributyl ammonium chloride at 1 mg/mL).

Experiment [2] relates to Alkaline phosphatase. Nature of the experiment: Peak light intensity of dephosphorylated dioxetanes. The class given is biochemical. The settings on record: for PEAK INTENSITY: 0.004 mM dioxetane, 30° C., 0.1M diethanolamine, 1 mM MgCl2, pH 10, alkaline phosphatase 1.05×10^-9 M. The procedure:
Determination of the Peak Light Intensity of Dephosphorylated Dioxetanes
A 0.5 mL aliquot of dioxetane (0.004 mM) was equilibrated to 30° C. in 0.1M diethanolamine, 1 mM MgCl2, pH 10. Alkaline phosphatase (final concentration of 1.05×10^-9 M) was added to the tube and the chemiluminescent signal was measured in a Turner TD-20E luminometer for 10 to 20 minutes.

Experiment [3] relates to biotinylated pBR322(35 mer). Nature of the experiment: Detection of biotinylated pBR322 (35 mer) on nylon membrane. The settings on record: for DNA CONC. (detection sensitivity): 5 minute exposure, 0.25 mM dioxetane, nylon membrane, pH 9.5 for CSPD and TFE, pH 9.0 for CDP-Star and TFE-ADP-Star. The text has this:
Detection of Biotinylated pBR322(35 mer) on Nylon Membrane
Serial dilutions of biotinylated pBR322 (35 mer) were spotted onto strips of Tropilon-Plus nylon membrane. Spots correspond to 210 pg, 70 pg, 23.3 pg, 7.7 pg, 2.6 pg, 0.86 pg, 0.29 pg, 0.10 pg, 32.0 fg, 10.7 fg, 3.6 fg and 1.2 fg of biotinylated pBR322(35 mer). After spotting, the DNA was cross-linked to the membrane by UV fixation, the membranes were blocked with 0.2% I-Block, 5% sodium dodecyl sulfate (SDS) in phosphate buffered saline(PBS) (Blocking Buffer I), incubated with a 1-5000 dilution of Avidx-AP in Blocking Buffer I for 30 minutes, washed twice with 5% SDS in PBS for 5 minutes, rinsed twice with Assay Buffer, incubated for 5 minutes in 0.25 mM dioxetane phosphate in Assay Buffer and exposed to X-ray film for 5 minutes. The membrane strips incubated with CSPD, and TFE were rinsed with 0.1M diethanolamine, 1 mM MgCl2, pH 9.5 and those incubated with CDP-Star, and TFE-ADP-Star were rinsed with the same buffer at pH 9.0. The Assay Buffer for CSPD and TFE was 0.1M diethanolamine, 1 mM MgCl2, pH 9.5 and for CD-Star, and TFE-ADP-Star was the same buffer at pH 9.0.

Experiment [4] relates to Alkaline phosphatase. Nature of the experiment: Enzymatic triggering of the prepared dioxetane with alkaline phosphatase to produce light. The class given is biochemical. The procedure: 480 milligrams of chromatographed disodium 2-chloro-5-(2,2,2-trifluoroethoxy tricyclo[3.3.1.1^3,7 ]dec-2-ylidenemethyl)phenyl phosphate was placed in a tube and wet down with anhydrous methanol, 4 mL. Chloroform, 40 mL, was added to obtain a solution. A solution of tetraphenylporphine (TPP), 6 milligrams in 3 mL chloroform, was then added to yield a pink-purple reaction mixture. The solution was cooled in an ice bath while sparging with oxygen through a Pasteur pipette for 5 minutes. The gas flow was continued while the solution was irradiated with a 400 watt sodium vapor lamp which had been filtered with a 3.0 mil thickness of DuPont Kapton film. After 40 minutes, a small sample was blown down and dissolved in water which contained 0.1% NaHCO3. Analytical HPLC, under conditions described above for the starting material, indicated a new product which eluted at 12.1 minutes. The starting material, eluting at 12.5 minutes, was present in just a trace amount. The reaction was stripped of solvents and pumped to yield a dark red foam. This was dissolved in 80 mL water which contained 5 drops of 0.5M NaOH. The solution was filtered to remove insolubles, and was preparatively chromatographed on a one inch PLRP-S column (Polymer Laboratories) using an acetonitrile/water gradient. The product peak was shaved on the front and in the back, collecting only the middle cut. […]

Setting [5] is: nylon membrane blotting, TABLE III.

Structures can show the parent of a compound that is named as a salt.

We go through seven compounds from patent US5869699A, “1,2 chemiluminescent dioxetanes of improved performance” (Tropix, Inc., priority 1997, dated 1999).

With `COC1(c2cccc(OP(=O)(O)O)c2)OOC12C1CC3CC2CC(Cl)(C3)C1` (stereo not shown) [CSPD], in the experiment on Alkaline phosphatase [1], the “T1/2 (chemiluminescence half-life)” value is 0.6 min. Also, in the experiment with Alkaline phosphatase [1] (by itself in a buffer), the “half-life compared with TFE” value was “shorter than TFE”. In addition, the “PEAK INTENSITY” value in the experiment on Alkaline phosphatase [2] worked out at 200 RLU. Besides, in experiment [3], the “DNA CONC. (detection sensitivity)” value was found to be 23.3 PICOGRAMS.

In the case of `COC1(c2ccc(Cl)c(OP(=O)(O)O)c2)OOC12C1CC3CC(C1)CC2C3` (stereo not shown) [ADP-Star], in the experiment with Alkaline phosphatase [1], the “T1/2 (chemiluminescence half-life)” value is 2.7 min. Also, the “PEAK INTENSITY” value with Alkaline phosphatase [2] amounted to 682 RLU.

Turning to `O=P([O-])([O-])Oc1cccc(C2(OCC(F)(F)F)OOC23C2CC4CC3CC(Cl)(C4)C2)c1.[Na+].[Na+]` (stereo not shown) [TFE-CDP-Star, Disodium 3-(4-(2,2,2-trifluoroethoxy)spiro{1,2-dioxetane-3,2'-(5'-chloro)tricyclo [3.3.1,1^3,7]decan}-4-yl)phenyl phosphate], in the experiment on Alkaline phosphatase [4] (HPLC peak of basified reaction sample, pH 10 aqueous diethanolamine buffer, excess alkaline phosphatase), the “duration of burst of light on addition of excess alkaline phosphatase” value turned out to be 3 min.

Regarding `O=P(O)(O)Oc1cccc(C2(OCC(F)(F)F)OOC23C2CC4CC(C2)CC3C4)c1` (stereo not shown) [TFE], in the experiment with Alkaline phosphatase [1], the “T1/2 (chemiluminescence half-life)” value stood at 0.9 min; the “T1/2 (chemiluminescence half-life), with Sapphire II enhancer” value was 15.5 min; the “t1/2 (chemiluminescence half-life)” value was 0.9 min. For the same compound, in the experiment on Alkaline phosphatase [1] (in the presence of enhancers), the “t1/2 in the presence of enhancers” value came to 15 min. The “PEAK INTENSITY” value with Alkaline phosphatase [2] was determined as 282 RLU. For the same compound, in experiment [3], the “DNA CONC. (detection sensitivity)” value stood at 7.7 PICOGRAMS.

In the case of `O=P(O)(O)Oc1cc(C2(OCC(F)(F)F)OOC23C2CC4CC(C2)CC3C4)ccc1Cl` (stereo not shown) [TFE-ADP-Star, Disodium 2-chloro-5-(4-(2,2,2-trifluoroethoxy)spiro{1,2-dioxetane-3,2'-tricyclo[3.3.1.1^3,7]decan}-4-yl-phenyl phosphate], in the experiment on Alkaline phosphatase [1], the “T1/2 (chemiluminescence half-life)” value was 2.0 min and the “T1/2 (chemiluminescence half-life), with Sapphire II enhancer” value was determined as 5.0 min. Besides, in the experiment with Alkaline phosphatase [2], the “PEAK INTENSITY” value amounted to 390 RLU. Also, the “chemiluminescent signal intensity / relative emission efficiency” value in the experiment on Alkaline phosphatase [2] (comment on TABLE II) is reported as “generates a higher intensity signal”. Also, the “DNA CONC. (detection sensitivity)” value in experiment [3] was found to be 0.0107 PICOGRAMS. In addition, in experiment [3] (setting [5]), the “amount of DNA detected relative to TFE” value is reported as “close to one thousand times less DNA than TFE” and the “sensitivity compared with CDP-Star” value was “more sensitive than CDP-Star”. Besides, the “light production on enzymatic triggering with alkaline phosphatase” value in the experiment on Alkaline phosphatase [4] is recorded as “produce light”.

As for `COC1(c2ccc(Cl)c(OP(=O)(O)O)c2)OOC12C1CC3CC2CC(Cl)(C3)C1` (stereo not shown) [CDP-Star], in the experiment on Alkaline phosphatase [1], the “T1/2 (chemiluminescence half-life)” value came to 1.2 min. For the same compound, the “PEAK INTENSITY” value in the experiment on Alkaline phosphatase [2] is listed as 863 RLU. In addition, the “DNA CONC. (detection sensitivity)” value in experiment [3] is 0.86 PICOGRAMS.

Turning to `COC1(c2cccc(OP(=O)(O)O)c2)OOC12C1CC3CC(C1)CC2C3` (stereo not shown) [AMPPD, 3-(2'-spiroadamantane)-4-methoxy-4-(3"-phosphoryloxy)-phenyl-1,2-dioxetanedisodium salt], in the experiment with Alkaline phosphatase [1], the “t1/2 (chemiluminescence half-life)” value was 2.1 min.
